# Source: patent publication US20060058374A1, “Urotensin II receptor agents” (priority 2002, published 2006)
# Read-outs that look alike come from different tables or passages of the source.
# Tests used:
# Assay type in all cases: cell-based
# [1] = target: T1, Serotonin 5HT-1E (Homo sapiens, UniProt P28566); assay: R-SAT assay, Serotonin 5HT-1E; settings: percent maximal activation relative to control compound
# T1 construct: expressed in transfected cells; host or cells: NIH3T3
# Method: (§1) The test compound of Formula III was screened according to a modification of the method described in U.S. Pat. No. 5,912,312. The method, herein referred to as Method 1, consists of the following:
# (§2) Receptor Selection and Amplification (R-SAT) Assays.
# (§3) R-SAT assays were performed with minor modifications from that previously described (6). Briefly, NIH3T3 cells were grown in tissue culture treated rollerbottles to 40-50% confluence. Cells were transfected for 12-16 hours with plasmid DNAs using superfect (Qiagen Inc.) as per manufacture's protocols. R-SAT's were generally performed with 10 μg/rollerbottle of receptor and 50 μg/rollerbottle of Beta-galactosidase plasmid DNA. All receptor and G-protein constructs used were in the PSI mammalian expression vector (Promega Inc.). The transfected cells were then trypsinized and frozen in DMEM containing 10% DMSO. Frozen cells were later thawed, plated at 10,000-40,000 cells per well of a 96 ½ area plate that contained drug. […] Media was then removed from the plates and marker gene activity was measured by the addition of the beta-galactosidase substrate ONPG (in PBS with 5% NP-40). The resulting colorimetric reaction was measured in a spectrophotometric plate reader (Titertek Inc.) at […].
# (§4) EC50, IC50 and Ki are presented as the negative of the calculated potency in Molar.
# [2] = target: T2, CCKa (Homo sapiens, UniProt P32238); assay: R-SAT assay, CCKa; settings: percent maximal activation relative to control compound
# T2 construct: expressed in transfected cells; host or cells: NIH3T3
# Method: as §1, §2, §3, §4
# [3] = target: T3, Dopamine D5 (Homo sapiens, UniProt P21918); assay: R-SAT assay, Dopamine D5
# T3 construct: expressed in transfected cells; host or cells: NIH3T3
# T3 sequence (P21918 whole entry): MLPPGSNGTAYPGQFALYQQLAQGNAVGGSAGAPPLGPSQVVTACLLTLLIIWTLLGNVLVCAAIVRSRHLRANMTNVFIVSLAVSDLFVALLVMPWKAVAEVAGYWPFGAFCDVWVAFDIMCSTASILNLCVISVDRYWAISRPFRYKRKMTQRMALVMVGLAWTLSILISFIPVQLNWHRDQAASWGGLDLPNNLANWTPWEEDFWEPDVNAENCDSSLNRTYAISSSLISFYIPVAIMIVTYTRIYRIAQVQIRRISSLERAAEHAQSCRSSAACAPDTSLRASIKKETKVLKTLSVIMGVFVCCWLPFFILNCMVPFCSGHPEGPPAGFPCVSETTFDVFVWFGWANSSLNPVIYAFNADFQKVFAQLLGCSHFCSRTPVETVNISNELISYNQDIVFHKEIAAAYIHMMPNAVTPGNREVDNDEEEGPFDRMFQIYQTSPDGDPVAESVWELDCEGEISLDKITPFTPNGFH
# Method: as §1, §2, §3, §4
# [4] = target: T4, Serotonin 5HT7 (Homo sapiens, UniProt P34969); assay: R-SAT assay, Serotonin 5HT7; settings: percent maximal activation relative to control compound
# T4 construct: expressed in transfected cells; host or cells: NIH3T3
# T4 sequence (P34969 whole entry): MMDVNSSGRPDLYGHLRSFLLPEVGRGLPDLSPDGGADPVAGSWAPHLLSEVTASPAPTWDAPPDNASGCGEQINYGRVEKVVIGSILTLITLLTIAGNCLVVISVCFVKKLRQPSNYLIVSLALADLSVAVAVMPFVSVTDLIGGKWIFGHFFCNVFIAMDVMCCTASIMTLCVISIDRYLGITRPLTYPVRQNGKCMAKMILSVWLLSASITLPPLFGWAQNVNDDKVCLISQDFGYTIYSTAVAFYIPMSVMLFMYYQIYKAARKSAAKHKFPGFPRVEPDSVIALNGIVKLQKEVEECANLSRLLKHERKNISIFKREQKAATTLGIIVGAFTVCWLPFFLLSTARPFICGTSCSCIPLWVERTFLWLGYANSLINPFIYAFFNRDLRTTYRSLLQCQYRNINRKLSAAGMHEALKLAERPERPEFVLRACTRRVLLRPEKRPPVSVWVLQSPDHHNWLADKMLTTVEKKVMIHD
# Method: as §1, §2, §3, §4
# [5] = target: T5, Acetylcholine m3 (Homo sapiens, UniProt P20309); assay: R-SAT assay, Acetylcholine m3
# T5 construct: expressed in transfected cells; host or cells: NIH3T3
# T5 sequence (P20309 whole entry): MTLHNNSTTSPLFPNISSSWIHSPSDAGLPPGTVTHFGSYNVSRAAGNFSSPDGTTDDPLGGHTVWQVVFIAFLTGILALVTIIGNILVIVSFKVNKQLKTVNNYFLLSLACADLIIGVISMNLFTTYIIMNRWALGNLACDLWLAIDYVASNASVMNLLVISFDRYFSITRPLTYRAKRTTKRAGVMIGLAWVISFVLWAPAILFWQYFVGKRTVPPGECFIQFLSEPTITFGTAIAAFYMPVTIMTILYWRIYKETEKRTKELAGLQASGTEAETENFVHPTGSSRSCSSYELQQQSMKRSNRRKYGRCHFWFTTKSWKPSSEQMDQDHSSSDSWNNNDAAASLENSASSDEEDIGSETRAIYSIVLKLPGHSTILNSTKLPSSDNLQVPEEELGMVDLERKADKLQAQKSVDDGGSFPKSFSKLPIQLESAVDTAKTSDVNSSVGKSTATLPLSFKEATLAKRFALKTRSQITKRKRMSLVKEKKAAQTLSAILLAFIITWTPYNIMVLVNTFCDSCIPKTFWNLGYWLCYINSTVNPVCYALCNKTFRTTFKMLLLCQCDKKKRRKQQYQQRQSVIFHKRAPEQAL
# Method: as §1, §2, §3, §4
# [6] = target: T6, Serotonin 5HT2c (Homo sapiens, UniProt P28335); assay: R-SAT assay, Serotonin 5HT2c; settings: inverse agonist mode; percent maximal inhibition relative to repression of basal activity by a control standard compound
# T6 construct: expressed in transfected cells; host or cells: NIH3T3
# T6 sequence (P28335 33-458): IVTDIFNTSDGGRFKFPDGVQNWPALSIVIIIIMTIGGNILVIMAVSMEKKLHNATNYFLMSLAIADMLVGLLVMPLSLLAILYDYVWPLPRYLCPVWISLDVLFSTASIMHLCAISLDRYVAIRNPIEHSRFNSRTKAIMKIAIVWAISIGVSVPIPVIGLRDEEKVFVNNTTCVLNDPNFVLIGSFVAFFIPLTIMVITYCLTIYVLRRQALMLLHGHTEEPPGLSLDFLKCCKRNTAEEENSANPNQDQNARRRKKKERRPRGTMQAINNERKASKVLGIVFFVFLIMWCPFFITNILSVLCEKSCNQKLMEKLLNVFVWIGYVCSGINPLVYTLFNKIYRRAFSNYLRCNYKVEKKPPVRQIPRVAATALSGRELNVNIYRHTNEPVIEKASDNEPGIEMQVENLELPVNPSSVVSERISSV
# Method: as §1, §2, §3, §4
# [7] = target: T7, CRF2a (Homo sapiens, UniProt Q13324); assay: R-SAT assay, CRF2a; settings: percent maximal activation relative to control compound
# T7 construct: expressed in transfected cells; host or cells: NIH3T3
# Method: as §1, §2, §3, §4
# [8] = target: T8, CRF1 (Homo sapiens, UniProt P34998); assay: R-SAT assay, CRF1; settings: percent maximal activation relative to control compound
# T8 construct: expressed in transfected cells; host or cells: NIH3T3
# T8 sequence (P34998 24-415): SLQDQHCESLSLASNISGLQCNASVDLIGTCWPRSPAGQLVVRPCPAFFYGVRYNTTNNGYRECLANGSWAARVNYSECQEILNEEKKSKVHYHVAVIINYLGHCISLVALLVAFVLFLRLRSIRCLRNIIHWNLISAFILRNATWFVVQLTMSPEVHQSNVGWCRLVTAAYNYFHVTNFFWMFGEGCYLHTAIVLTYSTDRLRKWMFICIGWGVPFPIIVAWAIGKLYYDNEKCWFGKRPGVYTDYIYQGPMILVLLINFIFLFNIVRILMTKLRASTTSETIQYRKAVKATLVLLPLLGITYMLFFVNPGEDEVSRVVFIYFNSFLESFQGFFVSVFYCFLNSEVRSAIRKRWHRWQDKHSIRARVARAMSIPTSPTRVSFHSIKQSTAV
# Method: as §1, §2, §3, §4
# [9] = target: T9, SST5 (Homo sapiens, UniProt P35346); assay: R-SAT assay, SST5; settings: percent maximal activation relative to control compound
# T9 construct: expressed in transfected cells; host or cells: NIH3T3
# Method: as §1, §2, §3, §4
# [10] = target: T10, Beta Adrenergic 2 (Homo sapiens, UniProt P07550); assay: R-SAT assay, Beta Adrenergic 2
# T10 construct: expressed in transfected cells; host or cells: NIH3T3
# T10 sequence (P07550 whole entry): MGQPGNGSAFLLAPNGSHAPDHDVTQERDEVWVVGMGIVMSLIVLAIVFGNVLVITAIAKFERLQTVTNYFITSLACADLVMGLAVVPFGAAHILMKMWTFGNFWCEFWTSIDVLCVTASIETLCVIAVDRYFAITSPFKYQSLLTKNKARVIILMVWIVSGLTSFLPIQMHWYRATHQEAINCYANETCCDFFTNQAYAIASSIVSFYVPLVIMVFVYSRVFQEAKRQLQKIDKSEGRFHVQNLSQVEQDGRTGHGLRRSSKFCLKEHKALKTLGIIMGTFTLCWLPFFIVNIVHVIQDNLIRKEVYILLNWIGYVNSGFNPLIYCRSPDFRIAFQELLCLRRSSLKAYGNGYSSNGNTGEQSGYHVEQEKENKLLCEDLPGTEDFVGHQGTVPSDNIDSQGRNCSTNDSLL
# Method: as §1, §2, §3, §4
# [11] = target: T11, Acetylcholine m1 (Homo sapiens, UniProt P11229); assay: R-SAT assay, Acetylcholine m1
# T11 construct: expressed in transfected cells; host or cells: NIH3T3
# T11 sequence (P11229 whole entry): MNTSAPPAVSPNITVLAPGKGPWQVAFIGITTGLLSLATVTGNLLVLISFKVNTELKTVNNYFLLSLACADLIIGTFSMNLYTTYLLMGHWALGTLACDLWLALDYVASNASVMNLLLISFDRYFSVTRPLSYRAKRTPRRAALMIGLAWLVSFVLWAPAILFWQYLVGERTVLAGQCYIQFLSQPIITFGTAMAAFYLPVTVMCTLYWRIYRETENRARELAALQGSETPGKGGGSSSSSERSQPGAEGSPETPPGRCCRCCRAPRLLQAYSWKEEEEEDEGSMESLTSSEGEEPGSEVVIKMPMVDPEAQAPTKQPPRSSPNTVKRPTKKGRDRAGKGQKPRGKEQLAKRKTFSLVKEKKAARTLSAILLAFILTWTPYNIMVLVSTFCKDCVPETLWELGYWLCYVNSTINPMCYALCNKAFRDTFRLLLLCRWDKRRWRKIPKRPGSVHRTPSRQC
# Method: as §1, §2, §3, §4
# [12] = target: T12, SST3 (Homo sapiens, UniProt P32745); assay: R-SAT assay, SST3; settings: percent maximal activation relative to control compound
# T12 construct: expressed in transfected cells; host or cells: NIH3T3
# T12 sequence (P32745 whole entry, species assumed): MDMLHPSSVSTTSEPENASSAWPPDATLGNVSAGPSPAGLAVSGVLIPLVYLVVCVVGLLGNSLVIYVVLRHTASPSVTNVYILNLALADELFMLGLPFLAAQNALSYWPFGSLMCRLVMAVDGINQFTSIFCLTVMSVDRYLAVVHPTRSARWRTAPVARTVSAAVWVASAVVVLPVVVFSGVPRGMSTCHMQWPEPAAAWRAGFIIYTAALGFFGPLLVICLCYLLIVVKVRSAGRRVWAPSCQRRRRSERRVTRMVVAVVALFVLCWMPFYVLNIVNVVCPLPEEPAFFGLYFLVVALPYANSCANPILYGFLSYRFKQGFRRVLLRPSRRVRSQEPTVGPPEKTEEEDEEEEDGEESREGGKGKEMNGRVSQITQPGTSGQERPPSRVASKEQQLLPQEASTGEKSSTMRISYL
# Method: as §1, §2, §3, §4
# [13] = target: T13, Histamine H1 (Homo sapiens, UniProt P35367); assay: R-SAT assay, Histamine H1; settings: competitive antagonist mode; percent maximal inhibition relative to control standard compound
# T13 construct: expressed in transfected cells; host or cells: NIH3T3 cells, receptor plasmid in PSI mammalian expression vector (Promega)
# T13 sequence (P35367 whole entry): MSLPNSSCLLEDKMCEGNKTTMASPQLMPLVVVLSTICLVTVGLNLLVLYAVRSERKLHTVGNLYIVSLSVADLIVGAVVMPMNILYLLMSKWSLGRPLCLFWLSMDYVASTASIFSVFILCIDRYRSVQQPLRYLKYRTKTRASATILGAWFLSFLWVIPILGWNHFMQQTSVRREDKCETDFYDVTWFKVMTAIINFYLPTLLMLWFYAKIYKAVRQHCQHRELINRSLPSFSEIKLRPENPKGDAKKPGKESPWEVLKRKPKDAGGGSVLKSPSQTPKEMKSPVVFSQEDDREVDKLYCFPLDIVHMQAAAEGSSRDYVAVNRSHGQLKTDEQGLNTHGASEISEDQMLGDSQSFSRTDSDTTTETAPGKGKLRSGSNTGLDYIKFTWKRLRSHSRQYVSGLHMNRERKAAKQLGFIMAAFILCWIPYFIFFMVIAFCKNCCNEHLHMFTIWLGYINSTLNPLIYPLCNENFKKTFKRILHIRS
# Method: as §1, §2, §3, §4
# [14] = target: T14, urotensin II receptor (Homo sapiens, UniProt Q9UKP6); assay: R-SAT assay, Urotensin II receptor
# T14 construct: expressed in transfected cells; host or cells: NIH3T3
# T14 sequence (Q9UKP6 1-389): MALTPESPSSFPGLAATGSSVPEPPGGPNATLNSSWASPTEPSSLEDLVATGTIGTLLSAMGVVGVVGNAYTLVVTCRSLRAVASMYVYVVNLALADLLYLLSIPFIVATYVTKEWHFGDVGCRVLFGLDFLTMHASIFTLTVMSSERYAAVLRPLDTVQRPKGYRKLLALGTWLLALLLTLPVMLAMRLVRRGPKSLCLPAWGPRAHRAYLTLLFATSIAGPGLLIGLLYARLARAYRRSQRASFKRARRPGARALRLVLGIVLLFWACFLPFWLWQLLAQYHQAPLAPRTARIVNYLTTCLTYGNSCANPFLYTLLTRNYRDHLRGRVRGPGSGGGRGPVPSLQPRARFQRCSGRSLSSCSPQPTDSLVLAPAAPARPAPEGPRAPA
# Method: as §1, §2
# (§5) R-SAT assays were performed with minor modifications from that previously described (6). Briefly, NIH3T3 cells were grown in tissue culture treated rollerbottles to 40-50% confluence. Cells were transfected for 12-16 hours with plasmid DNAs using superfect (Qiagen Inc.) as per manufacture's protocols. R-SAT's were generally performed with 10 μg/rollerbottle of receptor and 50 μg/rollerbottle of Beta-galactosidase plasmid DNA. All receptor and G-protein constructs used were in the PSI mammalian expression vector (Promega Inc.). The transfected cells were then trypsinized and frozen in DMEM containing 10% DMSO. Frozen cells were later thawed, plated at 10,000-40,000 cells per well of a 96 ½ area plate that contained drug. Cells were then grown in a humidified atmosphere with 5% ambient CO2 for five days. Media was then removed from the plates and marker gene activity was measured by the addition of the beta-galactosidase substrate ONPG (in PBS with 5% NP-40). The resulting colorimetric reaction was measured in a spectrophotometric plate reader (Titertek Inc.) at […].
# as §4
# [15] = target: T15, Serotonin 5HT6 (Homo sapiens, UniProt P50406); assay: R-SAT assay, Serotonin 5HT6; settings: percent maximal activation relative to control compound
# T15 construct: expressed in transfected cells; host or cells: NIH3T3
# Method: as §1, §2, §3, §4
# [16] = target: T16, SST2 (Homo sapiens, UniProt P30874); assay: R-SAT assay, SST2; settings: percent maximal activation relative to control compound
# T16 construct: expressed in transfected cells; host or cells: NIH3T3
# T16 sequence (P30874 whole entry, species assumed): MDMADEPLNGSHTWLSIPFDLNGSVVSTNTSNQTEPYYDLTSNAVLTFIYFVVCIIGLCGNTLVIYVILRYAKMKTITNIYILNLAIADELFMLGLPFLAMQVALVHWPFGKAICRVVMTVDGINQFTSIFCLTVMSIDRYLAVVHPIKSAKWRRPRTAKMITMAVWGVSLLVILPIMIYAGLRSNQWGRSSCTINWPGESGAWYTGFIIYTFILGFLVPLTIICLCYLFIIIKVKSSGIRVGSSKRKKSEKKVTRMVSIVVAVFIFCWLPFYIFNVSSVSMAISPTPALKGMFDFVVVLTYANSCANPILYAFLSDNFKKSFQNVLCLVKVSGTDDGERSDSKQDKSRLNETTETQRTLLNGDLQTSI
# Method: as §1, §2, §3, §4
# [17] = target: T17, Acetylcholine m5 (Homo sapiens, UniProt P08912); assay: R-SAT assay, Acetylcholine m5
# T17 construct: expressed in transfected cells; host or cells: NIH3T3
# T17 sequence (P08912 1-532): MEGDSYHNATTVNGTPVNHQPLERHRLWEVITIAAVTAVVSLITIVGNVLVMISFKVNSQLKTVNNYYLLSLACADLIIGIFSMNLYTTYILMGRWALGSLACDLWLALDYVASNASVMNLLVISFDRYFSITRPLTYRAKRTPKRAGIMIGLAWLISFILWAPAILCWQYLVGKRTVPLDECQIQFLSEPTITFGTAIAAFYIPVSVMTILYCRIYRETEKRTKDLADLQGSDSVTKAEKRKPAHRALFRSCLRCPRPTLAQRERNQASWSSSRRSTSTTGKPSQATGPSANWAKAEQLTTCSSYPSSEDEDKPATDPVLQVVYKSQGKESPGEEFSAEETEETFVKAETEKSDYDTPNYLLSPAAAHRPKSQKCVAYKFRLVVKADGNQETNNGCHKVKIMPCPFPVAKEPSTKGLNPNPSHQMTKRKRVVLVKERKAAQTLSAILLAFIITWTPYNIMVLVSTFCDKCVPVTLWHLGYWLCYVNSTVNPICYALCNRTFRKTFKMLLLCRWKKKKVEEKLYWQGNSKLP
# Method: as §1, §2, §5, §4
# [18] = competitive antagonist mode, percent maximal inhibition relative to control standard compound
# [19] = percent maximal activation relative to control compound
# T1 sequence (P28566 whole entry): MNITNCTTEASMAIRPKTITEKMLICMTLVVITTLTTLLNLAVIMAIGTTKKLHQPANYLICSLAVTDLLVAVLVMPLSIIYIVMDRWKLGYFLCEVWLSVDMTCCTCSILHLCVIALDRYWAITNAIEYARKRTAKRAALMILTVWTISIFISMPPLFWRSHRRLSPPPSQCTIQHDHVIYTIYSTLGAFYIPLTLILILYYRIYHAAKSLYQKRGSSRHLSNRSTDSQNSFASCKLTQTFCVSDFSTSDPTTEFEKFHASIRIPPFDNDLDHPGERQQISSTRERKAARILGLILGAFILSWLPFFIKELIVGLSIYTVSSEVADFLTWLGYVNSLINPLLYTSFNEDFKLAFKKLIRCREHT
structure (smiles),measurement,setting,value
CN(C)CCC1(c2ccc(Cl)cc2)Cc2ccccc2C(=O)O1 (centres unmarked) [Formula III],Agonist % Eff,[1],19%
same,Agonist % Eff,[2],0%
same,Competitive Antagonist % Inh,[3]; [18],0%
same,Agonist % Eff,[3]; [19],0%
same,Agonist % Eff,[4],0%
same,Competitive Antagonist % Inh,[5]; [18],28%
same,Agonist % Eff,[5]; [19],1.8%
same,Inverse Agonist % Inh,[6],0%
same,Agonist % Eff,[7],0%
same,Agonist % Eff,[8],0%
same,Agonist % Eff,[9],0%
same,Competitive Antagonist % Inh,[10]; [18],0%
same,Agonist % Eff,[10]; [19],0%
same,Competitive Antagonist % Inh,[11]; [18],13%
same,Agonist % Eff,[11]; [19],3%
same,Agonist % Eff,[12],0%
same,Competitive Antagonist % Inh,[13],0%
same,EC50,"[14]; agonist mode, negative of the calculated potency in Molar, read-out: Agonist EC50 (converted)",100 nM
same,maximal biological response,[14]; compared with the response evoked by the urotensin II peptide,equal to or greater than the response evoked by the urotensin II peptide
same,EC50,"[14]; functional potency, Example 1 (Method 1), read-out: EC50 for the urotensin II receptor",200 nM
same,Agonist % Eff,[14]; [19],132%
same,Agonist % Eff,[15],0%
same,Agonist % Eff,[16],0%
same,Ki,"[17]; competitive antagonist mode, negative of the calculated potency in Molar",> 2240 nM
same,Competitive Antagonist % Inh,[17]; [18],55%
same,Agonist % Eff,[17]; [19],3.6%
